Our source for the Km values is publication PMC11435183, “Enzymatic Characterization of SpPAL Genes in S. polyrhiza and Overexpression of the SpPAL3” (Plants, 2024).

Type in all cases: biochemical, Spirodela polyrhiza
Test [1] concerns T1, SpPAL2.
T1 construct: full-length ORF (2277 bp); about 83 kDa; homotetramer only predicted
In words: Michaelis-Menten kinetics, deamination to trans-cinnamic acid. Particulars: 0-20 mM L-Phe; pH and temperature of the kinetic runs not clearly stated (activity assay: 100 mM Tris-HCl pH 8.0, 50 °C). From the text:
Michaelis-Menten kinetics, deamination to trans-cinnamic acid on SpPAL2

Test [2] deals with T2, SpPAL1.
T2 construct: full-length ORF (2172 bp); about 78 kDa; homotetramer only predicted
The description is as above. Particulars: 0-20 mM L-Phe; pH and temperature of the kinetic runs not clearly stated (activity assay: 100 mM Tris-HCl pH 8.0, 50 °C). The text has this: Michaelis-Menten kinetics, deamination to trans-cinnamic acid on SpPAL1

The next test relates to T3, SpPAL3.
T3 construct: about 79 kDa; homotetramer only predicted
Described as above. The conditions noted are these: 0-20 mM L-Phe; pH and temperature of the kinetic runs not clearly stated (activity assay: 100 mM Tris-HCl pH 8.0, 50 °C). From the text:
Michaelis-Menten kinetics, deamination to trans-cinnamic acid on SpPAL3

In test [3] the test system is T2, SpPAL1. Kind of test: Michaelis-Menten kinetics, deamination to p-coumaric acid. The conditions noted are these: 0.1-2.5 mM L-Tyr; pH and temperature of the kinetic runs not clearly stated (activity assay: 100 mM Tris-HCl pH 8.0, 50 °C). From the text:
Michaelis-Menten kinetics, deamination to p-coumaric acid on SpPAL1

For test [4], the system named is T1, SpPAL2. Described as above. The conditions noted are these: 0.1-2.5 mM L-Tyr; pH and temperature of the kinetic runs not clearly stated (activity assay: 100 mM Tris-HCl pH 8.0, 50 °C); Km lies above the tested concentration range. From the text:
Michaelis-Menten kinetics, deamination to p-coumaric acid on SpPAL2

A word on the Km: it is the substrate concentration at which the rate is half of its maximum. For the molecule `N[C@@H](Cc1ccccc1)C(=O)O` [L-Phe], the Km was 345 µM in the test on SpPAL2 [1], 252 µM in the test with SpPAL1 [2] and 632 µM in the test on SpPAL3.
On to `N[C@@H](Cc1ccc(O)cc1)C(=O)O` [L-Tyr], for which the Michaelis constant (Km) in the test with SpPAL1 [3] turned out to be 1290 µM; in the test with SpPAL2 [4], 8720 µM.
